# Test results taken from patent US8697709B2, “Fused ring heteroaryl kinase inhibitors” (The Regents of the University of California, priority 2008, dated 2014).
# Positions count from the first letter of the chain named. Read-outs that look alike come from different tables or passages of the source.
# How the values were obtained:
# Type in all cases: biochemical
# T315A Abl = target: T1, T315A Abl (Homo sapiens, UniProt P00519, T315A); assay: In vitro kinase assay, T315A Abl; conditions: Table 1a
# T1 sequence (P00519 242-493 T315A limits assumed): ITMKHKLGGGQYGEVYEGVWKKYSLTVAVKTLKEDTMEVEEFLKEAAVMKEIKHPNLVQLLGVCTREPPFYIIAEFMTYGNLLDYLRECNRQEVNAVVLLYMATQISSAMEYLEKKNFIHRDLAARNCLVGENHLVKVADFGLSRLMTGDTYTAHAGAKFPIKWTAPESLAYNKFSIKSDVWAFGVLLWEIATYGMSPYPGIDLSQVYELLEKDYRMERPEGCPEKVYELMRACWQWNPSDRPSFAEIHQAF
# Method: (§1) Kinase reactions were initiated by the addition of […] cold ATP supplemented with 5 mCi γ^32P ATP and allowed to proceed at room temperature (RT). At 10 minutes […] of the reactions were spotted onto phosphocellulose sheets (P81, Whatman) and subsequently soaked in wash buffer (1.0% (v/v) phosphoric acid). The sheets were washed five times in buffer, dried, and transferred radioactivity was measured by phosphorimaging using a TyphoonTM scanner (Molecular Dynamics). Radioactive counts were quantified using ImageQuantTM software, and titration data were fit to a sigmoidal dose response to derive IC50 values using the Prism® software package. Dose responses were based on a 12 point inhibitor titration, using 1⁄3 dilutions starting from […]. Experiments were completed 2-4 times to derive mean values.
# c-Src = c-Src (Gallus gallus, UniProt P00523); assay: In vitro kinase assay (32P peptide phosphorylation), WT Src
# T338G Src = T338G Src (Gallus gallus, UniProt P00523, T338G); assay: In vitro kinase assay, T338G Src
# Method: as §1
# Abl = target: T2, Abl (Homo sapiens, UniProt P00519); assay: In vitro kinase assay (32P peptide phosphorylation), WT Abl; conditions: read-out: IC50 WT Abl
# T2 sequence (P00519 242-493 limits assumed): T1 sequence (P00519 242-493 T315A limits assumed) with A74T
# [1] = Table 1a, read-out: IC50 WT Src
# [2] = Table 1b, read-out: IC50 WT Src
# [3] = unphosphorylated kinase domain, 100 mM ATP, read-out: IC50 for c-Src
IC50 (T315A Abl),IC50 (c-Src; [1]),IC50 (T338G Src; Table 1a),IC50 (c-Src; [2]),Compound,further results
< 1 µM,1 to 5 µM,< 1 µM,–,CC(C)(C)n1nc(Cc2cccc(NC(=O)c3cccc(C(F)(F)F)c3)c2)c2c(N)ncnc21 [AD25],–
–,1 to 5 µM,–,–,"Nc1ncnc2c1c(-c1ccc(NC(=O)Nc3cccc(C(F)(F)F)c3)cc1)nn2[C@@H]1CCN(C(=O)Nc2cccc(C(F)(F)F)c2)C1 [AD73c, (R)-3-(4-amino-3-(4-(3-(3-(trifluoromethyl)phenyl)ureido)phenyl)-1H-pyrazolo[3,4-d]pyrimidin-1-yl)-N-(3-(trifluoromethyl)phenyl)pyrrolidine-1-carboxamide]",IC50 (Abl; Table 1a): > 5 µM
1 to 5 µM,< 1 µM,< 1 µM,–,Nc1ncnc2c1c(Cc1cccc(NC(=O)c3cccc(C(F)(F)F)c3)c1)nn2C1CCCC1 [BB9],–
–,–,–,> 5 µM,"Nc1ncnc2c1c(-c1ccc(NC(=O)c3cccc(C(F)(F)F)c3)cc1)nn2CCCO [AD65, N-(4-(4-amino-1-(3-hydroxypropyl)-1H-pyrazolo[3,4-d]pyrimidin-3-yl)phenyl)-3-(trifluoromethyl)benzamide]",IC50 (Abl; Table 1b): > 5 µM
< 1 µM,< 1 µM,< 1 µM,–,"Nc1ncnc2c1c(Cc1cccc(NC(=O)Nc3cccc(C(F)(F)F)c3)c1)nn2C1CCCC1 [BB10, 1-(3-((4-amino-1-cyclopentyl-1H-pyrazolo[3,4-d]pyrimidin-3-yl)methyl)phenyl)-3-(3-(trifluoromethyl)phenyl)urea]",IC50 (Abl; Table 1a): 1 to 5 µM; selectivity towards c-Src over Abl (c-Src; ratio of IC50 values c-Src vs Abl): approximately 5 fold
< 1 µM,1 to 5 µM,< 1 µM,–,"CC(C)n1nc(Cc2cccc(NC(=O)Nc3cccc(C(F)(F)F)c3)c2)c2c(N)ncnc21 [AD36, 1-(3-((4-amino-1-isopropyl-1H-pyrazolo[3,4-d]pyrimidin-3-yl)methyl)phenyl)-3-(3-(trifluoromethyl)phenyl)urea]",IC50 (Abl; Table 1a): 1 to 5 µM
–,–,–,1 to 5 µM,CC(C)n1nc(-c2cccc(NC(=O)Nc3cccc(C(F)(F)F)c3)c2)c2c(N)ncnc21 [AD53],IC50 (T338G Src; Table 1b): < 1 µM
–,–,–,< 1 µM,"Nc1ncnc2c1c(-c1ccc(NC(=O)Nc3cccc(C(F)(F)F)c3)cc1)nn2[C@H]1CCOC1 [AD66, 1-(4-(4-amino-1-((S)-tetrahydrofuran-3-yl)-1H-pyrazolo[3,4-d]pyrimidin-3-yl)phenyl)-3-(3-(trifluoromethyl)phenyl)urea]",IC50 (Abl; Table 1b): < 1 µM
–,–,–,< 1 µM,"Nc1ncnc2c1c(-c1ccc(NC(=O)Nc3cccc(C(F)(F)F)c3)cc1)nn2CCCO [AD64, 1-(4-(4-amino-1-(3-hydroxypropyl)-1H-pyrazolo[3,4-d]pyrimidin-3-yl)phenyl)-3-(3-(trifluoromethyl)phenyl)urea]",IC50 (Abl; Table 1b): > 5 µM
–,–,–,< 1 µM,"Nc1ncnc2c1c(-c1ccc(NC(=O)c3cccc(C(F)(F)F)c3)cc1)nn2[C@H]1CCOC1 [AD67, N-(4-(4-amino-1-((S)-tetrahydrofuran-3-yl)-1H-pyrazolo[3,4-d]pyrimidin-3-yl)phenyl)-3-(trifluoromethyl)benzamide]",IC50 (Abl; Table 1b): 1 to 5 µM
1 to 5 µM,1 to 5 µM,> 5 µM,–,Cn1nc(Cc2ccc(NC(=O)c3cccc(C(F)(F)F)c3)cc2)c2c(N)ncnc21 [AD7],–
–,–,–,> 5 µM,"Nc1ncnc2c1c(-c1ccc(NC(=O)c3cccc(C(F)(F)F)c3)cc1)nn2[C@@H]1CCNC1 [AD72, N-(4-(4-amino-1-((R)-pyrrolidin-3-yl)-1H-pyrazolo[3,4-d]pyrimidin-3-yl)phenyl)-3-(trifluoromethyl)benzamide]",IC50 (Abl; Table 1b): > 5 µM
–,< 1 µM,–,–,"CC(C)(C)OC(=O)N1CC[C@H](n2nc(-c3ccc(NC(=O)Nc4cccc(C(F)(F)F)c4)cc3)c3c(N)ncnc32)C1 [AD78, (S)-tert-butyl 3-(4-amino-3-(4-(3-(3-(trifluoromethyl)phenyl)ureido)phenyl)-1H-pyrazolo[3,4-d]pyrimidin-1-yl)pyrrolidine-1-carboxylate]",IC50 (Abl; Table 1a): 1 to 5 µM
1 to 5 µM,1 to 5 µM,1 to 5 µM,–,Cn1nc(Cc2ccc(NC(=O)Nc3cccc(C(F)(F)F)c3)cc2)c2c(N)ncnc21 [AD8],–
< 1 µM,< 1 µM,< 1 µM,–,Nc1ncnc2c1c(Cc1cccc(NC(=O)Nc3cccc(C(F)(F)F)c3)c1)nn2CC1CC1 [BB14],–
1 to 5 µM,1 to 5 µM,1 to 5 µM,–,"Nc1ncnc2c1c(Cc1cccc(NC(=O)c3cccc(C(F)(F)F)c3)c1)nn2Cc1ccccc1 [BB5, N-(3-((4-amino-1-benzyl-1H-pyrazolo[3,4-d]pyrimidin-3-yl)methyl)phenyl)-3-(trifluoromethyl)benzamide]",–
–,–,–,> 5 µM,"Nc1ncnc2c1c(-c1ccc(NC(=O)c3cccc(C(F)(F)F)c3)cc1)nn2[C@@H]1CCOC1 [AD68, N-(4-(4-amino-1-((R)-tetrahydrofuran-3-yl)-1H-pyrazolo[3,4-d]pyrimidin-3-yl)phenyl)-3-(trifluoromethyl)benzamide]",IC50 (Abl; Table 1b): > 5 µM
< 1 µM,1 to 5 µM,1 to 5 µM,–,"Nc1ncnc2c1c(Cc1cccc(NC(=O)Nc3cccc(C(F)(F)F)c3)c1)nn2Cc1ccccc1 [BB6, 1-(3-((4-amino-1-benzyl-1H-pyrazolo[3,4-d]pyrimidin-3-yl)methyl)phenyl)-3-(3-(trifluoromethyl)phenyl)urea]",–
–,1 to 5 µM,–,–,"Nc1ncnc2c1c(-c1ccc(NC(=O)Nc3cccc(C(F)(F)F)c3)cc1)nn2[C@H]1CCN(C(=O)Nc2cccc(C(F)(F)F)c2)C1 [AD71c, (S)-3-(4-amino-3-(4-(3-(3-(trifluoromethyl)phenyl)ureido)phenyl)-1H-pyrazolo[3,4-d]pyrimidin-1-yl)-N-(3-(trifluoromethyl)phenyl)pyrrolidine-1-carboxamide]",IC50 (Abl; Table 1a): > 5 µM
< 1 µM,< 1 µM,< 1 µM,–,"CC(C)(C)n1nc(Cc2cccc(NC(=O)Nc3cccc(C(F)(F)F)c3)c2)c2c(N)ncnc21 [AD26, 1-(3-((1-tert-butyl-4-amino-1H-pyrazolo[3,4-d]pyrimidin-3-yl)methyl)phenyl)-3-(3-(trifluoromethyl)phenyl)urea]",IC50 (Abl; Table 1a): < 1 µM; IC50 (c-Src; [3]): 0.48 µM
< 1 µM,> 5 µM,< 1 µM,–,Nc1ncnc2c1c(Cc1cccc(NC(=O)c3cccc(C(F)(F)F)c3)c1)nn2CC1CC1 [BB13],–
–,< 1 µM,–,–,"CC(C)(C)OC(=O)N1CC[C@@H](n2nc(-c3ccc(NC(=O)Nc4cccc(C(F)(F)F)c4)cc3)c3c(N)ncnc32)C1 [AD79, (R)-tert-butyl 3-(4-amino-3-(4-(3-(3-(trifluoromethyl)phenyl)ureido)phenyl)-1H-pyrazolo[3,4-d]pyrimidin-1-yl)pyrrolidine-1-carboxylate]",IC50 (Abl; Table 1a): 1 to 5 µM
< 1 µM,> 5 µM,1 to 5 µM,–,Cn1nc(Cc2cccc(NC(=O)c3cccc(C(F)(F)F)c3)c2)c2c(N)ncnc21 [AD15],–
–,–,–,1 to 5 µM,"Nc1ncnc2c1c(-c1ccc(NC(=O)Nc3cccc(C(F)(F)F)c3)cc1)nn2[C@@H]1CCOC1 [AD69, 1-(4-(4-amino-1-((R)-tetrahydrofuran-3-yl)-1H-pyrazolo[3,4-d]pyrimidin-3-yl)phenyl)-3-(3-(trifluoromethyl)phenyl)urea]",IC50 (Abl; Table 1b): > 5 µM
1 to 5 µM,1 to 5 µM,< 1 µM,–,"Cn1nc(Cc2cccc(NC(=O)Nc3cccc(C(F)(F)F)c3)c2)c2c(N)ncnc21 [AD16, 1-(3-((4-amino-1-methyl-1H-pyrazolo[3,4-d]pyrimidin-3-yl)methyl)phenyl)-3-(3-(trifluoromethyl)phenyl)urea]",IC50 (Abl; Table 1a): 1 to 5 µM; IC50 (c-Src; [3]): ~6.2 µM
–,–,–,1 to 5 µM,CC(C)n1nc(-c2cccc(NC(=O)c3cccc(C(F)(F)F)c3)c2)c2c(N)ncnc21 [AD52],IC50 (T338G Src; Table 1b): < 1 µM
< 1 µM,> 5 µM,1 to 5 µM,–,CC(C)n1nc(Cc2cccc(NC(=O)c3cccc(C(F)(F)F)c3)c2)c2c(N)ncnc21 [AD35],–
–,–,–,1 to 5 µM,CC(C)n1nc(-c2ccc(NC(=O)c3cccc(C(F)(F)F)c3)cc2)c2c(N)ncnc21 [AD56],IC50 (T338G Src; Table 1b): < 1 µM
–,–,–,> 5 µM,"Nc1ncnc2c1c(-c1ccc(NC(=O)c3cccc(C(F)(F)F)c3)cc1)nn2[C@H]1CCNC1 [AD70, N-(4-(4-amino-1-((S)-pyrrolidin-3-yl)-1H-pyrazolo[3,4-d]pyrimidin-3-yl)phenyl)-3-(trifluoromethyl)benzamide]",IC50 (Abl; Table 1b): > 5 µM
